Results on three sequences are retold here after US20140234350A1, “OVARIAN CANCER VACCINES AND VACCINATION METHODS” (Cedars-Sinai Medical Center, priority 2013, published 2014).

The assay deals with antigen-specific CTLs (CD8+ T cells) against T2 cells pulsed with CD133 HLA-A2 peptides. The experiment in a line: IFN-γ ELISPOT assay of antigen-specific T cell response. It counts as cell-based, human. The settings on record: peptide-induced CTLs co-cultured with T2 cells pulsed with 10 μg/ml of peptides for 20 hours, compared with T2 control (no peptides); FIG. 3. The protocol: To test this hypothesis, effector CD8^+ T cells were isolated and co-cultured with HLA-A2+ DC pulsed with CD133 peptides to induce antigen-specific CTLs. Antigens-specific T cell responses were evaluated by an IFN-γ ELISPOT assay.
Human monocyte-derived DC was generated using previously described methods. Briefly, monocytes were isolated from PBMC by magnetic immunoselection using EasySep human monocyte enrichment kit (Stem Cell Technologies) in accordance with the manufacturer's instructions and then cultured at […] in 20 ml of GMP CellGenix DC serum-free medium (Cat#20801-0500, Cellgenix) supplemented with 1000 unit/ml of recombinant human GM-CSF (Cat#AF-300-03, Peprotech, Inc) and recombinant human IL-4(Cat# AF-200-04, Peprotech, Inc). Cells were harvested after 3 or 6 days of culture. The DCs were washed and plated in 6-well plates at a concentration of 5×10^6 cells/well IFN-γ (1000 unit/ml) and monophosphoryl lipid A (MPLA, 20-50 μg/ml) was added into the wells to mature the DC for 24 hr or 48 hrs. Prior to some assays, DC was frozen and stored into liquid nitrogen.
In order to evaluate antigen-specific immune responses, CD8^+ T cells were isolated from fresh or frozen apheresis by positive selection using Dynabeads® CD8 Positive Isolation Kit (Life Technologies, Grand Island, N.Y.) and co-cultured with autologous mDC for four weeks. DCs were added weekly. Briefly, mDC was pulsed with synthetic peptides ([…]) for 6-8 hours at 37° C., and then treated with 20 μg/ml Mitomycin C (Sigma-Aldrich, St. Louis, Mo.) for 25 min at 37° C. and 5% CO2. […]
Antigen-specific immune responses were evaluated by the IFN-γ Elispot kit (BD Biosciences) following previously described methods. […] The colored spots, representing cytokine-producing cells, were counted under a dissecting microscope. The results were evaluated by an automated ELISPOT reader system using KS ELISPOT 4.3 software.
For “FLLPALIFAV (listed as Homo sapiens) [CD133p804, CD133 HLA-A2 peptide, position 804-813]”, the “antigen-specific T cell response (IFN-γ ELISPOT)” value (shortened to “antigen-specific T cell response”) was “can efficiently recognize T2 pulsed with these antigens and boost the T cell immune response”.

Take “ILSAFSVYV (listed as Homo sapiens) [CD133p405, CD133 HLA-A2 peptide, position 405-413]”: the “antigen-specific T cell response” value is “can efficiently recognize T2 pulsed with these antigens and boost the T cell immune response”.

For the sequence “YLQWIEFSI (listed as Homo sapiens) [CD133p753, CD133 HLA-A2 peptide]”, the “antigen-specific T cell response” value was “can efficiently recognize T2 pulsed with these antigens and boost the T cell immune response”.
